In the supplement of paper PMC10307832:

How the values were obtained:
Experiment in all cases: relative viability (nuclei count vs DMSO), 5 days (fraction); higher = more cells survive
BX 795 + Vorinostat = compound: O=C(NCCCNc1nc(Nc2cccc(NC(=O)N3CCCC3)c2)ncc1I)c1cccs1 [BX 795] + O=C(CCCCCCC(=O)Nc1ccccc1)NO [Vorinostat] (partner 1 µM)
Summary of the method: (§1)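 Relative viability equals treated-well nuclei counts divided by vehicle-well nuclei counts. Counts came from 4× images of lung cancer cell lines grown in 1536-well plates for 5 days after pin-tool dosing on the day after seeding. Dosing used one drug alone or a fixed anchor-drug dose plus five library-drug doses (not always all listed) in √10 steps, and values are medians of duplicate plates.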

BX 795 + Lapatinib = compound: O=C(NCCCNc1nc(Nc2cccc(NC(=O)N3CCCC3)c2)ncc1I)c1cccs1 [BX 795] + CS(=O)(=O)CCNCc1ccc(-c2ccc3ncnc(Nc4ccc(OCc5cccc(F)c5)c(Cl)c4)c3c2)o1 [Lapatinib] (partner 2 µM)
Summary of the method: as §1

BX 795 + Decitabine = compound: O=C(NCCCNc1nc(Nc2cccc(NC(=O)N3CCCC3)c2)ncc1I)c1cccs1 [BX 795] + Nc1ncn([C@H]2C[C@H](O)[C@@H](CO)O2)c(=O)n1 [Decitabine] (partner 2 µM)
Summary of the method: as §1

BX 795 + Dasatinib = compound: O=C(NCCCNc1nc(Nc2cccc(NC(=O)N3CCCC3)c2)ncc1I)c1cccs1 [BX 795] + Cc1nc(Nc2ncc(C(=O)Nc3c(C)cccc3Cl)s2)cc(N2CCN(CCO)CC2)n1 [Dasatinib] (partner 0.075 µM)
Summary of the method: as §1

BX 795 + Olaparib = compound: O=C(NCCCNc1nc(Nc2cccc(NC(=O)N3CCCC3)c2)ncc1I)c1cccs1 [BX 795] + O=C(c1cc(Cc2n[nH]c(=O)c3ccccc23)ccc1F)N1CCN(C(=O)C2CC2)CC1 [Olaparib] (partner 8 µM)
Summary of the method: as §1

Row | Cell Line | relative viability (BX 795 + Vorinostat; first compound 0.04 µM) | relative viability (BX 795 + Vorinostat; first compound 0.4 µM) | relative viability (BX 795 + Vorinostat; first compound 1.265 µM) | relative viability (BX 795 + Lapatinib; first compound 0.04 µM) | relative viability (BX 795 + Lapatinib; first compound 0.1265 µM) | relative viability (BX 795 + Lapatinib; first compound 0.4 µM) | relative viability (BX 795 + Lapatinib; first compound 1.265 µM) | relative viability (BX 795 + Decitabine; first compound 0.04 µM) | relative viability (BX 795 + Decitabine; first compound 0.4 µM) | relative viability (BX 795 + Decitabine; first compound 1.265 µM) | relative viability (BX 795 + Dasatinib; first compound 0.04 µM) | relative viability (BX 795 + Dasatinib; first compound 0.1265 µM) | relative viability (BX 795 + Dasatinib; first compound 0.4 µM) | relative viability (BX 795 + Dasatinib; first compound 1.265 µM) | relative viability (BX 795 + Olaparib; first compound 0.04 µM) | relative viability (BX 795 + Olaparib; first compound 0.4 µM) | relative viability (BX 795 + Olaparib; first compound 1.265 µM) | relative viability (BX 795 + Vorinostat; first compound 0.1265 µM) | relative viability (BX 795 + Decitabine; first compound 0.1265 µM) | relative viability (BX 795 + Olaparib; first compound 0.1265 µM)
1 | PC-3 [JPC-3] | 0.766 | 0.929 | 0.809 | 0.451 | 0.449 | 0.447 | 0.453 | 0.834 | 0.907 | 0.725 | 1.02 | 1.04 | 0.979 | 0.975 | 1.16 | 1.04 | 1.09 |  |  | 
2 | PC-14 | 0.819 | 0.424 | 0.433 | 0.284 | 0.35 | 0.271 | 0.203 | 0.226 | 0.17 | 0.178 | 0.278 | 0.249 | 0.228 | 0.177 | 0.241 | 0.139 | 0.236 | 0.778 | 0.211 | 0.298
3 | RERF-LC-KJ |  | 0.59 | 0.541 | 0.865 | 0.764 | 0.886 | 0.792 | 0.762 | 0.792 | 0.56 | 0.873 | 0.899 | 0.707 | 0.648 | 0.919 | 0.945 | 0.409 | 0.667 | 0.759 | 0.963
4 | SK-LU-1 | 0.674 | 0.595 | 0.593 | 0.883 | 1.1 | 0.801 | 0.469 | 0.676 | 0.505 | 0.601 | 0.142 | 0.181 |  | 0.135 | 0.484 | 0.31 | 0.413 | 0.764 | 0.679 | 0.519
5 | SK-MES-1 | 1.1 | 0.545 | 0.748 | 0.509 | 0.45 | 0.458 | 0.385 | 0.503 | 0.392 | 0.39 | 0.416 | 0.453 | 0.164 | 0.223 | 0.746 | 0.688 | 0.383 | 1.11 | 0.358 | 0.646
6 | SW 1573 | 0.862 | 0.558 | 0.276 | 1.13 | 1.18 | 1.26 | 0.781 | 0.651 | 0.581 | 0.381 | 0.512 | 0.456 | 0.452 | 0.161 | 0.673 | 0.669 | 0.238 | 0.875 | 0.652 | 0.531
7 | UMC-11 | 0.422 | 0.354 | 0.348 | 0.949 | 1.05 | 0.757 | 0.333 | 0.457 | 0.436 | 0.593 | 0.412 | 0.407 | 0.291 | 0.169 | 0.381 | 0.861 | 0.27 | 0.308 | 0.688 | 0.32
